Laboratory results as given in patent US5428168A, “Lactol PAF antagonists” (British Biotech Pharmaceuticals Limited, priority 1990, dated 1995).
pIC50: −log10 of the molar value.

How the values were obtained:
[1] = test system: PAF-induced hypotension in the rat; assay: Reversal of PAF-induced hypotension in anaesthetised rats; assay type: in vivo, rat (male Sprague-Dawley); settings: for inhibition of PAF-induced hypotension: @ 1 mg/kg i.v.; for ED50: iv, i.v. bolus, PAF 100 ng/kg/min i.v., straight line interpolation, read-out: ED50 (dose to cause 50% reversal of the hypotensive PAF response)
Procedure: Male Sprague-Dawley rats (300-400 g) were anaesthetised with a mixture of sodium pentobarbitone, 22.5 mg·kg^-1 and thiopental 62.5 mg·kg^-1. Through a midline incision in the neck, the trachea was cannulated and the animals breathed spontaneously. A carotid artery was cannulated for the measurement of blood pressure and this signal was used to trigger a rate meter to measure heart rate. Both jugular veins were cannulated: one for the infusion of PAF and the other for the bolus administration of test compounds.
PAF, 100 ng·kg^-1 .min^-1 was infused i.v. until a sustained fall in mean blood pressure of 50 mmHg was achieved. […] The peak of this reversal was measured and the dose to cause a 50% reversal of the hypotensive PAF response (ED50) calculated by straight line interpolation and the results are presented in Table 2.

PAF receptor = target: T1, PAF receptor (Homo sapiens, UniProt P25105); assay: Inhibition of [3H]-PAF receptor binding to human platelet plasma membrane (isotopic labelling and filtration); settings: human platelet membranes, 0.5 nM [3H]-PAF, 0° C., 1 hour
T1 construct: Platelet concentrates were obtained from a hospital blood bank; from tissue; host or cells: human platelets (plasma membrane fraction of lysed platelets from hospital blood bank concentrates)
Procedure: Compounds of general formula I inhibit PAF-induced functions in both the cellular and tissue levels by changing the PAF binding to its specific receptor site. The ability of compounds of general formula I to inhibit the binding of PAF to its specific receptor binding site on human platelet plasma membranes was measured according to the pharmacological example. […] Platelet concentrates were obtained from a hospital blood bank. These platelet concentrates (500-2500 ml.) were centrifuged at 800 rpm for 10 minutes in a SORVALL RC3B centrifuge to remove the red blood cells present. (The word SORVALL is a trade mark.) The supernatant was subsequently centrifuged at 3,000 rpm in a SORVALL RC3B centrifuge to pellet the platelets present. The platelet rich pellets were resuspended in a minimum volume of buffer (150 mM NaCl, 10 mM Tris, 2 mM EDTA, pH 7.5) and layered onto Ficoll-Paque gradients, 9 ml platelet concentrate to 2 ml Ficoll, and centrifuged at 1,900 rpm for 15 minutes in a SORVALL RT6000 centrifuge. This step removes the residual red blood cells and other nonspecific material such as lymphocytes from the preparation. The platelets which form a band between the plasma and the Ficoll were removed, resuspended in the above buffer and centrifuged at 3,000 rpm for 10 minutes in a SORVALL RT6000 centrifuge. The pelleted platelets were resuspended in buffer (10 mM Tris, 5mM MgCl2, 2 mM EDTA, pH 7.0), snap freezed in liquid N2 and allowed to thaw slowly at room temperature in order to lyse the platelets. The latter step was repeated at least 3 times to ensure proper lysis. The lysed platelets were centrifuged at 3,000 rpm for 10 minutes in a SORVALL RT6000 centrifuge and resuspended in buffer. The latter step was repeated twice in order to remove any cytoplasmic proteins which may hydrolyse the […]. The prepared platelet membranes may be stored at -70° C. After thawing the prepared membranes were centrifuged in a SORVALL RT6000 at 3,000 rpm for 10 minutes and resuspended in assay buffer. The assay was conducted by preparing a series of Tris-buffered solutions of the selected antagonist of predetermined concentrations. […] Incubation was initiated by the addition of 100 μg of the isolated membrane fraction to each of the above solutions at 0° C. […] (The word WHATMAN is a trade mark.) The residue in each case was rapidly washed 4 times with 5 ml cold (4° C.) Tris-buffer solution. […] % Inhibition=[(TB-TBA)/SB]x100 where the specific binding SB=TB-NSB […]

[2] = test system: PAF-induced bronchoconstriction in the guinea pig; assay: Reversal of PAF-induced bronchoconstriction in anaesthetised guinea-pigs (modified Konzett-Rossler); assay type: in vivo, guinea-pig (male Dunkin-Hartley); settings: Cavia porcellus, iv, PAF 40 ng/kg/min i.v., read-out: ED50 (dose resulting in 50% reversal of PAF-induced bronchoconstriction)
Procedure: The inhibition of PAF induced bronchoconstriction was measured in anaesthetised artificially ventilated guinea-pigs (450-500 g) using a modified version of the Konzett-Rossler technique (Konzett M and Rossler R, Naunym-Schmiedeb. Arch. Exp. Pathol. Pharmakol., 1940, 197, 71). Male Dunkin-Hartley guinea-pigs were anaesthetised with urethane, 1.6 g·kg^-1. Through a midline neck incision, the trachea was cannulated and the animal ventilated with a constant tidal volume set between 5 and 15 ml, to give a tracheal inflation pressure of 15 mmHg at a rate of 40 per minute. A carotid artery was cannulated for the measurement of blood pressure and heart rate and both jugular veins were cannulated, one for the infusion of PAF and the other for the administration of test compounds. PAF, 40 ng·kg^-1 ·min^-1, was infused i.v. to produced a 100% increase in tracheal inflation pressure, and bronchoconstrictor effects were determined.

T1 sequence (P25105 whole entry): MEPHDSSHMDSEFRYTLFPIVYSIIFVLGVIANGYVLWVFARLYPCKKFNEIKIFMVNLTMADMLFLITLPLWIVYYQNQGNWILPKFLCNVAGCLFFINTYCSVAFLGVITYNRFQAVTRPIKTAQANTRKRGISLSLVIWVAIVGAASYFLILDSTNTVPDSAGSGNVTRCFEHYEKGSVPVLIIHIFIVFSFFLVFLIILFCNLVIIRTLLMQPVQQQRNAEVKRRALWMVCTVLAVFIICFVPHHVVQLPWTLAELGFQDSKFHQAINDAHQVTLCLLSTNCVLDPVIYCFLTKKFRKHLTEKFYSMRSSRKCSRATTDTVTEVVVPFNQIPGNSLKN

| pIC50 (PAF receptor) | SMILES | inhibition of PAF-induced hypotension [1] | ED50 [1] | ED50 [2] |
| --- | --- | --- | --- | --- |
| 5.52 | COc1ccc([C@H]2CC[C@H](OCCCc3ccc[n+](C)c3)O2)cc1OC (relative stereo) [Comparative Example A, trans-O-(3-(3-N-methylpyridyl)propyl)-5-(3,4-dimethoxyphenyl)-gamma-butyrolactol ether iodide, reference compound] | 31% | > 1000 µg/kg | – |
| 4.92 | COc1ccc([C@H]2CC[C@H](OCCCC/C=C\c3cccnc3)O2)cc1OC (relative stereo) [Example 7A, Z-O-(6-(3-Pyridyl)hex-5-enyl)-5-(3,4-dimethoxyphenyl)-gamma-butyrolactol ether] | – | – | – |
| 8.00 | Cc1nc2cnccc2n1CCCOC1CCC(c2ccc(Br)cc2)O1 (stereo not drawn) [Example 34, O-(3-(1H-2-Methylimidazo[4,5-c]pyridyl)propyl)-5-(4-bromophenyl)-gamma-butyrolactol ether] | – | – | – |
| 8.30 | Cc1nc2cnccc2n1CCCOC1CCC(c2ccc(Cl)c(Cl)c2)O1 (stereo not drawn) [Example 35, O-(3-(1H-2-Methylimidazo[4,5-c]pyridyl)propyl)-5-(3,4-dichlorophenyl)-gamma-butyrolactol ether] | – | 2 µg/kg | – |
| 5.70 | COc1ccc(C2CCC(OCc3ccc(Cn4c(C)nc5ccccc54)cc3)O2)cc1OC (stereo not drawn) [Example 24, O-((4-(1H-2-Methylbenzimidazylmethyl)phenyl)methyl)-5-(3,4-dimethoxyphenyl)-gamma-butyrolactol ether] | – | – | – |
| 5.40 | COc1ccc([C@H]2CC[C@H](OCCCc3cccnc3)O2)cc1OC (relative stereo) [Example 1A, trans-O-(3-(3-pyridyl)propyl)-5-(3,4-dimethoxyphenyl)-gamma-butyrolactol ether] | – | 27 µg/kg | – |
| 5.70 | COc1ccc(C2CCC(OCCCC/C=C\c3cccnc3)O2)cc1OC (stereo not drawn) [Example 7B, Z-O-(6-(3-Pyridyl)hex-5-enyl)-5-(3,4-dimethoxyphenyl)-gamma-butyrolactol ether] | – | – | – |
| 6.00 | COc1ccc([C@H]2CC[C@@H](OCCCc3ccc[n+](C)c3)O2)cc1OC (relative stereo) [Comparative Example B, cis-O-(3-(3-N-methylpyridyl)propyl)-5-(3,4-dimethoxyphenyl)-gamma-butyrolactol ether iodide, reference compound] | 10% | > 1000 µg/kg | – |
| 5.30 | COc1ccc(C2CCC(OCCCC#Cc3cccnc3)O2)cc1OC (stereo not drawn) [Example 4, O-(5-(3-Pyridyl)pent-4-ynyl)-5-(3,4-dimethoxyphenyl)-gamma-butyrolactol ether] | – | – | – |
| 7.60 | COc1ccc([C@H]2CC[C@@H](OCCCn3c(C)nc4cnccc43)O2)cc1OC (relative stereo) [Example 30A, O-(3-(1H-2-Methylimidazo[4,5-c]pyridyl)propyl)-5-(3,4-dimethoxyphenyl)-gamma-butyrolactol ether] | – | – | – |
| 7.82 | COc1ccc(C2CCC(OCCCn3c(C)nc4cnccc43)O2)cc1OC (stereo not drawn) [Example 30, O-(3-(1H-2-Methylimidazo[4,5-c]pyridyl)propyl)-5-(3,4-dimethoxyphenyl)-gamma-butyrolactol ether] | – | 1 µg/kg | 0.4 µg/kg |
| 6.00 | COc1ccc([C@H]2CC[C@H](OC/C=C/c3cccnc3)O2)cc1OC (relative stereo) [Example 10A, E-O-(3-(3-Pyridyl)prop-2-enyl)-5-(3,4-dimethoxyphenyl)-gamma-butyrolactol ether] | – | – | – |
| 4.92 | COc1ccc([C@H]2CC[C@H](OCCCCCc3cccnc3)O2)cc1OC (relative stereo) [Example 5A, O-(5-(3-Pyridyl)pentyl)-5-(3,4-dimethoxyphenyl)-gamma-butyrolactol ether] | – | – | – |
| 5.82 | COc1ccc([C@H]2CC[C@@H](OCCCCCc3cccnc3)O2)cc1OC (relative stereo) [Example 5B, O-(5-(3-Pyridyl)pentyl)-5-(3,4-dimethoxyphenyl)-gamma-butyrolactol ether] | – | – | – |
| 6.60 | COc1ccc(C2CCC(OCCCn3c(C)nnc3C)O2)cc1OC (stereo not drawn) [Example 29, O-(3-(3,5-Dimethyl-1,2,4-triazol-4-yl)propyl)-5-(3,4-dimethoxyphenyl)-gamma-butyrolactol ether] | – | – | – |
| 5.22 | COc1ccc(C2CCC(OCCCCc3cccnc3)O2)cc1OC (stereo not drawn) [Example 3, O-(4-(3-Pyridyl)butyl)-5-(3,4-dimethoxyphenyl)-gamma-butyrolactol ether] | – | – | – |
| 8.52 | COc1ccc(C2CCC(OCCCn3c(C)nc4cnccc43)O2)cc1Cl (stereo not drawn) [Example 36, O-(3-(1H-2-Methylimidazo[4,5-c]pyridyl)propyl)-5-(3-chloro-4-methoxyphenyl)-gamma-butyrolactol ether] | – | 2 µg/kg | – |
| 5.52 | COc1ccc(C2CCC(OC(C)CCc3cccnc3)O2)cc1OC (stereo not drawn) [Example 12, O-(1-Methyl-3-(3-pyridyl)propyl)-5-(3,4-dimethoxyphenyl)-gamma-butyrolactolether] | – | – | – |
| 5.40 | COc1ccc(C2CCC(OCCC#Cc3cccnc3)O2)cc1OC (stereo not drawn) [Example 2, O-(4-(3-Pyridyl)but-3-ynyl)-5-(3,4-dimethoxyphenyl)-gamma-butyrolactol ether] | – | – | – |
| 5.52 | COc1ccc([C@H]2CC[C@H](OCCCCC#Cc3cccnc3)O2)cc1OC (relative stereo) [Example 6A, O-(6-(3-Pyridyl)hex-5-ynyl)-5-(3,4-dimethoxyphenyl)-gamma-butyrolactol ether] | – | – | – |
| 5.00 | COc1ccc(C2CCC(OCc3csc(-c4cccnc4)n3)O2)cc1OC (stereo not drawn) [Example 27, O-((2-(3-Pyridyl)-4-thiazolyl)methyl)-5-(3,4-dimethoxyphenyl)-gamma-butyrolactol ether] | – | 120 µg/kg | – |
| 8.15 | Cc1nc2cnccc2n1CCCOC1CCC(c2ccc(F)cc2)O1 (stereo not drawn) [Example 33, O-(3-(1H-2-Methylimidazo[4,5-c]pyridyl)propyl)-5-(4-fluorophenyl)-gamma-butyrolactol ether] | – | 1 µg/kg | – |
| 6.82 | COc1ccc([C@H]2CC[C@@H](OC/C=C/c3cccnc3)O2)cc1OC (relative stereo) [Example 10B, E-O-(3-(3-Pyridyl)prop-2-enyl)-5-(3,4-dimethoxyphenyl)-gamma-butyrolactol ether] | – | – | – |
| – | COc1ccc(C2CCC(OCCCCn3c(C)nc4cnccc43)O2)cc1OC (stereo not drawn) [Example 31, O-(4-(1H-2-Methylimidazo[4,5-c]pyridyl)butyl)-5-(3,4-dimethoxyphenyl)-gamma-butyrolactol ether] | – | 3 µg/kg | – |
| 6.05 | COc1ccc(C2CCC(OCc3ccc(-n4c(C)nc5ccccc54)cc3)O2)cc1OC (stereo not drawn) [Example 23, O-((4-(1H-2-Methylbenzimidazyl)phenyl)methyl)-5-(3,4-dimethoxyphenyl)-gamma-butyrolactol ether] | – | – | – |
